The values that follow come from ChEMBL document CHEMBL2331182, “Discovery of a small-molecule antiviral targeting the HIV-1 matrix protein” (Bioorg Med Chem Lett, 2013).

For experiment [1], the target named is T1, Structural capsid protein (Human immunodeficiency virus 1, UniProt Q76129). In words: Inhibition of HIV1 capsid.
In experiment [2] the target is T1, Structural capsid protein. Description: Binding affinity to HIV1 capsid.

T1 sequence (Q76129 whole entry): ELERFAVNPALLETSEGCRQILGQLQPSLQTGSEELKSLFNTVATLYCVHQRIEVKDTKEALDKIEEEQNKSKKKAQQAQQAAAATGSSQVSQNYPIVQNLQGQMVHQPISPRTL

As to `Cc1ccc(NC(=O)NCCSCc2ccc(CN(C)C)o2)cc1Cl`, inhibition in experiment [1] was half-maximal at 60 µM (IC50). In addition, the Kd in experiment [2] came to 800 µM.

Usually IC50 stands for the point on the concentration scale where inhibition reaches its midpoint. The low end stands for higher potency, the high end for lower potency. The term Kd denotes the constant that tells how readily two partners part at equilibrium.
